Laboratory results as given in patent US10722518B2, “Oxazine derivative for use in the treatment or prevention of cerebral amyloid angiopathy” (Novartis AG, priority 2016, dated 2020).

Test system: amyloid-beta in CD31-positive vessels
Experiment: Assessment of CAA in APP23 mice by CD31/NT12 double fluorescence immunohistochemistry and image analysis
Type: in vivo, mouse
Description: Amyloid plaques were stained using a rabbit anti-Aβ primary antibody (NT12) which recognizes the C-terminal part of the amyloid peptide (the antibody was raised as described in Schrader-Fischer G and Paganetti P A, 1996, and Schrader-Fischer G et al., 1997). The vascular endothelial cells were detected using a rat anti-CD31 antibody (reference DIA310) from Dianova GmbH (Hamburg, Germany). All stainings were performed using the fully automated instrument Ventana Discovery® Ultra (Roche Diagnostics Schweiz AG, Rotkreuz, Switzerland). All chemicals were provided by Roche Diagnostic.
All study animals were used and brain tissue sections of 3 micrometers were freshly cut and collected on SuperFrost+ slides. The tissues sections were de-paraffinized and rehydrated under solvent-free conditions (EZprep solution) followed by antigen retrieval (demasking) performed by heat retrieval cycles for 32 min in a EDTA based buffer (CC1 solution). Subsequently, slides were blocked for 4 min using the DISCOVERY Inhibitor (reference 07017944001 (Roche)). The primary antibody diluted at 1/10′000 in antibody diluent was manually added on tissue sections and incubated for 1 h at room temperature. A short post-fixation (glutaraldehyde at 0.05%) was performed before applying the multimer UltraMap-anti Rabbit HRP ready to use antibody (reference 05269717001) for 16 min.
Detection was performed using the DISCOVERY FITC® following the manufacturer's recommendations. Slides were then heat denaturated at 92° C. for 20 min before a manual application of the second primary antibody (rat anti-CD31 diluted at 1/1′000 in antibody diluent) and incubated for 1 h. Multimer UltraMap-anti-Rat HRP antibody (reference 05891884001) was used for 20 min to detect CD31 in combination with the DISCOVERY Rhodamine kit (reference 07259883001).
The slides were washed and mounted using Prolong® Gold antifade reagent (reference P36931, ThermoFisher, Switzerland) and further scanned with the Hamamatsu slide scanner instrument (NanoZoomer 2.0 HT, scanning software NDP-Scan Vers. 2.5, Hamamatsu Photonics France, Swiss Office, Solothurn, Switzerland) at the 40× objective. The scanning settings were as follows: the exposure time with the DAPI filter was set at 28.5 ms as well as for the FITC filter and TRITC filter (detection of Rhodamine).
For the quantitative plaque and vessel-associated amyloid-beta evaluation based on image analysis, a proprietary image analysis platform (ASTORIA, Automated Stored Image Analysis) was developed based on MS Visual Studio 2010 and many functions from Matrox MIL V9 libraries (Matrox Inc, Quebec, Canada).
For the beta-amyloid plaque and vessel analysis, the following sequence of steps was performed: • Slides were scanned with Hamamatsu Nanozoomer at 40× magnification. […]

[1] = 0.03 g/kg food, 6 months, all CD31+ vessels
[2] = 0.03 g/kg food, 6 months, large CD31-positive vessels
[3] = 0.03 g/kg vs vehicle, all CD31+ vessels
[4] = 0.03 g/kg vs vehicle, large vessels
[5] = 0.03 g/kg vs vehicle, small + medium vessels

In the case of `C[C@@]1(c2nc(NC(=O)c3ncc(C(F)(F)F)cc3Cl)ccc2F)CO[C@@](C)(C(F)(F)F)C(N)=N1` [Compound 1, N-(6-((3R,6R)-5-amino-3,6-dimethyl-6-(trifluoromethyl)-3,6-dihydro-2H-1,4-oxazin-3-yl)-5-fluoropyridin-2-yl)-3-chloro-5-(trifluoromethyl)picolinamide], the “% of large vessels with 0% Aβ” value (0.03 g/kg food, 6 months) is reported as 9.14 ± 9.14%, the “% of large vessels with 1-10% Aβ” value (0.03 g/kg food, 6 months) is reported as 17.4 ± 1.63% and the “% of large vessels with 10-25% Aβ” value (0.03 g/kg food, 6 months) is reported as 11.2 ± 1.68%. The “% of large vessels with 25-50% Aβ” value (0.03 g/kg food, 6 months) was 17.5 ± 2.63%, the “% of large vessels with 50-75% Aβ” value (0.03 g/kg food, 6 months) was 27.7 ± 1.97% and the “% of large vessels with >10% Aβ” value (0.03 g/kg food, 6 months) was 73.5 ± 3.4%. For the same compound, the “% of large vessels with >75% Aβ” value (0.03 g/kg food, 6 months) was 17.0 ± 2.92%, the “% of small + medium vessels with 0% Aβ” value (0.03 g/kg food, 6 months) was 63.7 ± 2.83% and the “% of small + medium vessels with 1-10% Aβ” value (0.03 g/kg food, 6 months) was 22.3 ± 2.65%. The “% of small + medium vessels with 10-25% Aβ” value (0.03 g/kg food, 6 months) was 4.86 ± 0.48%, the “% of small + medium vessels with 25-50% Aβ” value (0.03 g/kg food, 6 months) was 3.55 ± 0.35% and the “% of small + medium vessels with 50-75% Aβ” value (0.03 g/kg food, 6 months) was 2.5 ± 0.31%. The “% of small + medium vessels with >10% Aβ” value (0.03 g/kg food, 6 months) was 14.0 ± 1.01%, the “% of small + medium vessels with >75% Aβ” value (0.03 g/kg food, 6 months) was 3.11 ± 0.44% and the “CAA Frequency (number small + medium vessels with >10% Aβ normalized to sample area, *10^7)” value (0.03 g/kg food, 6 months) was 91 ± 5.9. The “Number of large CD31+ vessels (normalized to total CD31 positive vessel numbers in %)” value (0.03 g/kg food, 6 months) was 1.89 ± 0.17%, the “Number of small + medium CD31+ vessels (normalized to total CD31 positive small + medium vessel numbers in %)” value (0.03 g/kg food, 6 months) was 98.1 ± 0.17% and the “Number small + medium vessels with >10% Aβ, mean ± SEM” value (0.03 g/kg food, 6 months) was 288 ± 21.9. For the same compound, the “Total number CD31+ vessels (normalized to total sample area, *10^5), mean ± SEM” value (0.03 g/kg food, 6 months) was 6.52 ± 0.4, the “Total vessel-associated NT12 area (normalized to total small + medium CD31+ vessel area)” value (0.03 g/kg food, 6 months) was 0.286 ± 0.0313 and the “% of vessels with 0% Aβ” value [1] was 60.3 ± 3.49%. The “% of vessels with 1-10% Aβ” value [1] was 23.2 ± 2.6%, the “% of vessels with 10-25% Aβ” value [1] was 5.65 ± 0.8% and the “% of vessels with 25-50% Aβ” value [1] was 4.06 ± 0.44%. The “% of vessels with 50-75% Aβ” value [1] was 3.13 ± 0.35%, the “% of vessels with >10% Aβ” value [1] was 16.5 ± 0.76% and the “% of vessels with >75% Aβ” value [1] was 3.7 ± 0.55%. For the same compound, the “CAA Frequency (number vessels with >10% Aβ normalized to sample area, *10^7)” value [1] was 94 ± 6.5, the “Number vessels with >10% Aβ, mean ± SEM” value [1] was 319 ± 22.2 and the “Total vessel-associated NT12 area (normalized to total CD31+ area)” value [1] was 0.65 ± 0.07. The “CAA Frequency (number vessels with >10% Aβ normalized to sample area, *10^7)” value [2] was 9.3 ± 1.0, the “Number vessels with >10% Aβ, mean ± SEM” value [2] was 29 ± 3.0 and the “Total vessel-associated NT12 area (normalized to total CD31+ area)” value [2] was 0.79 ± 0.05. For the same compound, the “% of large vessels with 0% Aβ, treatment effect vs vehicle” value (0.03 g/kg vs vehicle) was −18%, the “% of large vessels with 1-10% Aβ, treatment effect vs vehicle” value (0.03 g/kg vs vehicle) was “+19%” and the “% of large vessels with 10-25% Aβ, treatment effect vs vehicle” value (0.03 g/kg vs vehicle) was “+60%”. The “% of large vessels with 25-50% Aβ, treatment effect vs vehicle” value (0.03 g/kg vs vehicle) was −9%, the “% of large vessels with 50-75% Aβ, treatment effect vs vehicle” value (0.03 g/kg vs vehicle) was −15% and the “% of large vessels with >10% Aβ, treatment effect vs vehicle” value (0.03 g/kg vs vehicle) was −1%. The “% of large vessels with >75% Aβ, treatment effect vs vehicle” value (0.03 g/kg vs vehicle) was “+12%”, the “% of small + medium vessels with 0% Aβ, treatment effect vs vehicle” value (0.03 g/kg vs vehicle) was −13% and the “% of small + medium vessels with 1-10% Aβ, treatment effect vs vehicle” value (0.03 g/kg vs vehicle) was “+76%”. For the same compound, the “% of small + medium vessels with 10-25% Aβ, treatment effect vs vehicle” value (0.03 g/kg vs vehicle) was “+16%”, the “% of small + medium vessels with 25-50% Aβ, treatment effect vs vehicle” value (0.03 g/kg vs vehicle) was −9% and the “% of small + medium vessels with 50-75% Aβ, treatment effect vs vehicle” value (0.03 g/kg vs vehicle) was −6%. For the same compound, the “% of small + medium vessels with >10% Aβ, treatment effect vs vehicle” value (0.03 g/kg vs vehicle) was “+1%”, the “% of small + medium vessels with >75% Aβ, treatment effect vs vehicle” value (0.03 g/kg vs vehicle) was 0% and the “Total small + medium vessel-associated NT12 area (normalized to total CD31+ small + medium vessel area), treatment effect vs vehicle” value (0.03 g/kg vs vehicle) was “+6% n.s”. The “% of vessels with 0% Aβ, treatment effect vs vehicle” value [3] was −17%, the “% of vessels with 1-10% Aβ, treatment effect vs vehicle” value [3] was “+82%” and the “% of vessels with 10-25% Aβ, treatment effect vs vehicle” value [3] was “+34%”. For the same compound, the “% of vessels with 25-50% Aβ, treatment effect vs vehicle” value [3] was −2%, the “% of vessels with 50-75% Aβ, treatment effect vs vehicle” value [3] was 0% and the “% of vessels with >10% Aβ, treatment effect vs vehicle” value [3] was “+12%”. For the same compound, the “% of vessels with >75% Aβ, treatment effect vs vehicle” value [3] was “+12%”, the “CAA Frequency, treatment effect vs vehicle” value (shortened to “CAA Frequency … vs vehicle”) [3] was −4% n.s and the “Number vessels with >10% Aβ, treatment effect vs vehicle” value [3] was −10% n.s. For the same compound, the “Total vessel-associated NT12 area (normalized to total CD31+ area), treatment effect vs vehicle” value [3] was “+14% n.s”, the “CAA Frequency … vs vehicle” value [4] was “+20% n.s” and the “Number vessels with >10% Aβ, treatment effect vs vehicle” value [4] was “+4% n.s”. The “Total vessel-associated NT12 area (normalized to total CD31+ area), treatment effect vs vehicle” value [4] was −1% n.s, the “CAA Frequency … vs vehicle” value [5] was “+2% n.s” and the “Number vessels with >10% Aβ, treatment effect vs vehicle” value [5] was −12% n.s.
